Key:
Format in all cases: in vivo, Balb/c mice
LPS-induced ALI mice [1] = experiment: LPS-induced ALI model: histological examination (H&E)
Procedure: (§1) Specific pathogen-free (SPF) Balb/c mice (♂/♀; 20-26 g; 8 weeks old) were purchased from Shanghai SIPPR-BK Experimental Animal Co., Ltd. Mice were kept in an isolated ventilated cage in an environment of 40-60% humidity, 24±2° C., and 12 hrs/12 hrs dark-light cycle, and had free access to food and water. The method for preparing the LPS-induced ALI model was simply described as follows. The mice were randomly divided into a control group (12 mice) and an LPS group (48 mice). The LPS group (48 mice) was further divided into four subgroups (12 mice in each subgroup). The unanaesthetized mice in the four subgroups of LPS were intragastrically administered with normal saline (NS), CT-NA at 10 mg/kg or 30 mg/kg, and Dex at 1 mg/kg, respectively. […] 24 hrs after LPS challenge, the oxygen saturation (SO2) of all mice was measured by a Moor VMS-OXY™ instrument which measured SO2 (%) in the microcirculation at the wavelength range of 500 to 650 nm. […]
The lower lobe of the left lung of each mouse was inflated with neutral buffered 10% formalin instilled at room temperature under constant pressure of 22 to 25 cm H2O for 48 hrs. […] Pulmonary edema, hemorrhage, alveolar wall thickening and infiltration of neutrophils and inflammatory cells were counted and scored to evaluate the severity of lung injury. […] The total lung injury score was expressed as the sum of the four criteria. […]

[2] = system: NF-κB signalling pathway in the lung of LPS-induced ALI mice; experiment: Western blotting of NF-κB signalling pathway, lung tissue of ALI mice; settings: CT-NA 10 mg/kg or 30 mg/kg
Procedure: as §1, with “respectively. One hour later, the mice were anesthetized with sodium pentobarbital (intraperitoneal injection at 40 mg/kg), and then subjected to intratracheal instillation of NS to control group and LPS (4 mg/kg) to all LPS subgroups. 12 hrs later, the unanaesthetized mice of the LPS group were intragastrically administered with NS, CT-NA at 10 mg/kg or 30 mg/kg, or Dex at 1 mg/kg, respectively (FIG. 16).” for “respectively.”

LPS-induced ALI mice [3] = experiment: LPS-induced ALI model: pulmonary vascular permeability by Evans blue dye; settings: CT-NA 10 mg/kg (P<0.05) or 30 mg/kg (P<0.01), Dex 1 mg/kg (P<0.01)
Procedure: Evans Blue was a dye that could quickly bind to albumin and was remains restricted within blood vessels because the endothelium was impermeable to albumin under normal physiological conditions. Pulmonary microvascular permeability was assessed by measuring the extravasation of Evans blue dye in the lungs. The method was briefly described as follows. The mice were randomly divided into control group (12 mice) and LPS group (48 mice). The LPS group (48 mice) was further divided into four subgroups (each subgroup contains 12 mice). To measure pulmonary microvascular permeability, the unanaesthetized mice of LPS group received intragastric instillation of NS, CT-NA at 10 mg/kg or 30 mg/kg, or Dex at 1 mg/kg respectively. One hour later, the anaesthetized mice were intratracheally instilled with NS (control group) and LPS (all LPS subgroups) at 10 μl/10 g of body weight. […] And then the absorbance of the Evans blue dye extracted in the supernatant was measured against formamide blank at 620 nm via standard curve method, and expressed as microgram of dye per 100 mg of wet lung weight. In addition, the concentration of albumin in BALF was measured at 628 nm using a spectrophotometer and an albumin measurement kit. The albumin concentration ratio assessed from BALF represented not only the albumin level but also the permeability of the pulmonary microvascular.

CN([C@@H]1CCc2c(CC(=O)[O-])c3cccnc3n2C1)S(=O)(=O)c1ccc(F)cc1.[Na+] [Sodium salt hydrate]
pathological scores (LPS-induced ALI mice [1]; CT-NA 10 mg/kg (P<0.05) and 30 mg/kg (P<0.01), Dex 1 mg/kg (P<0.01)): considerably reduced
LPS-induced pulmonary histopathological changes (LPS-induced ALI mice [1]; CT-NA 10 or 30 mg/kg (dose dependence) or Dex 1 mg/kg, H&E): significant reduction
degradation of IκBα and P65 induced by LPS [2]: strongly reversed
LPS-induced IκBα and P65 activation ([2]; dose-dependent): reduced
LPS-induced pulmonary vascular leakage and extravasation of Evans Blue dye (LPS-induced ALI mice [3]): significantly reduced
